Literature values as cited in US20050214224A1, “Lipid formulations for spontaneous drug encapsulation” (Nektar Therapeutics, priority 2003, published 2005).

Details: hydrated state; lipid excipient

SMILES | hydrated liquid transition temperature [°C]
CCCCCCCCCCCCCCCC(=O)OC[C@H](COP(=O)([O-])OCC[N+](C)(C)C)OC(=O)CCCCCCCCCCCCCCC [DPPC, dipalmitoylphosphatidylcholine] | 42
CCCCCCCCCCCCCC(=O)OC[C@H](COP(=O)([O-])OCC[N+](C)(C)C)OC(=O)CCCCCCCCCCCCC [DMPC, dimyristoylphosphatidylcholine] | 23.5
